This note sets out measurements from US11078170B2 (Assembly Biosciences, Inc., priority 2017, dated 2021).

SMILES strings stand for the structures.

In the assay the test system is HBV viral production from HepAD38 cells. The assay is described as follows: Activity of test compounds on viral production from HepAD38 cells (viral load by qPCR of HBV core sequence in supernatant). In kind it is cell-based. The settings on record: Hepatitis B virus, 120 h, 5 days incubation, HBV DNA in supernatant by qPCR, top concentration 10 μM, read-out: Viral Load EC50 Activity range. The gist of the method: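 EC50 and CC50 come from four-parameter fits of supernatant viral load and CellTiter-Glo viability, respectively. Viral load was measured by core-region TaqMan qPCR against HBV DNA standards and compared with DMSO controls. Tet-free HepAD38 cells (50,000/well, 2% FBS) were exposed to compound, highest 10 μM, for 5 days at 37° C.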
In the case of `O=C(Nc1ccc(F)c(Cl)c1)[C@@H]1C[C@H](c2nccs2)NS(=O)(=O)N1CCO` (relative stereo) [HBV-CSU-097-ISO-II, Cis-N-(3-Chloro-4-fluorophenyl)-2-(2-hydroxyethyl)-5-(thiazol-2-yl)-1,2,6-thiadiazinane-3-carboxamide 1,1-dioxide], the EC50 was more than 5000 nM. The result for `CN1C(C(=O)Nc2cccc(C(F)(F)F)c2)CC(c2cccs2)NS1(=O)=O` (stereo not drawn) [HBV-CSU-012, Cis-2-Methyl-5-(thiophen-2-yl)-N-(3-(trifluoromethyl)phenyl)-1,2,6-thiadiazinane-3-carboxamide 1,1-dioxide] reads 1000 to 5000 nM; that for `CN1C(C(=O)Nc2ccc(F)c(Cl)c2)CC(c2ccc(F)cn2)NS1(=O)=O` (stereo not drawn) [HBV-CSU-032, Cis-N-(3-Chloro-4-fluorophenyl)-5-(5-fluoropyridin-2-yl)-2-methyl-1,2,6-thiadiazinane-3-carboxamide 1,1-dioxide], less than 1000 nM. The figure for `CN1C(C(=O)Nc2ccc(F)c(F)c2)CC(c2cccs2)NS1(=O)=O` (stereo not drawn) [HBV-CSU-011, Cis-N-(3,4-difluorophenyl)-2-methyl-5-(thiophen-2-yl)-1,2,6-thiadiazinane-3-carboxamide 1,1-dioxide] is less than 1000 nM.

As for `CN1C(C(=O)Nc2ccc(F)c(Cl)c2)CC(c2cccnc2)NS1(=O)=O` (stereo not drawn) [HBV-CSU-033, Cis-N-(3-Chloro-4-fluorophenyl)-2-methyl-5-(pyridin-3-yl)-1,2,6-thiadiazinane-3-carboxamide 1,1-dioxide], the EC50 is less than 1000 nM.

Take `CN1[C@H](C(=O)Nc2ccc(F)c(Cl)c2)C[C@H](c2ncc(-c3ccc(F)cn3)s2)NS1(=O)=O` [HBV-CSU-252-ISO-I, Cis-N-(3-Chloro-4-fluorophenyl)-5-(5-(5-fluoropyridin-2-yl)thiazol-2-yl)-2-methyl-1,2,6-thiadiazinane-3-carboxamide 1,1-dioxide]: the EC50 was less than 1000 nM.

On to `CN1[C@H](C(=O)Nc2ccc(F)c(Cl)c2)C[C@H](c2ncc(-c3ccc(Br)c(F)c3)s2)NS1(=O)=O` [HBV-CSU-173-ISO-I, Cis-5-(5-(4-Bromo-3-fluorophenyl)thiazol-2-yl)-N-(3-chloro-4-fluorophenyl)-2-methyl-1,2,6-thiadiazinane-3-carboxamide 1,1-dioxide], for which the EC50 was less than 1000 nM. The figure for `CN1C(C(=O)Nc2ccc(F)c(Cl)c2)CC(c2ncc(-c3cn[nH]c3)s2)NS1(=O)=O` (racemic) [HBV-CSU-254, Cis-5-(5-(1H-pyrazol-4-yl)thiazol-2-yl)-N-(3-chloro-4-fluorophenyl)-2-methyl-1,2,6-thiadiazinane-3-carboxamide 1,1-dioxide] is less than 1000 nM; for `CN1C(C(=O)Nc2cc(F)c(F)c(F)c2)CC(c2ccc(F)cc2)NS1(=O)=O` (racemic) [HBV-CSU-212, Cis-5-(4-Fluorophenyl)-2-methyl-N-(3,4,5-trifluorophenyl)-1,2,6-thiadiazinane-3-carboxamide 1,1-dioxide] it is less than 1000 nM; for `CN1[C@@H](C(=O)Nc2ccc(F)c(Cl)c2)C[C@@H](c2ccc(OCC(=O)O)cc2)NS1(=O)=O` [HBV-CSU-216-ISO-II, Cis-2-(4-(5-((3-Chloro-4-fluorophenyl)carbamoyl)-6-methyl-1,1-dioxido-1,2,6-thiadiazinan-3-yl)phenoxy)acetic acid] it is more than 5000 nM. The figure for `CN1[C@H](C(=O)Nc2ccc(F)c(Cl)c2)C[C@@H](c2ncc(Br)s2)NS1(=O)=O` [HBV-CSU-122-Trans-ISO-II, (3S,5S)-5-(5-bromothiazol-2-yl)-N-(3-chloro-4-fluorophenyl)-2-methyl-1,2,6-thiadiazinane-3-carboxamide 1,1-dioxide] is 1000 to 5000 nM.

On to `CN1C(C(=O)Nc2ccc(F)c(Cl)c2)CC(c2cccc(F)c2)NS1(=O)=O` (racemic) [HBV-CSU-231, Cis-N-(3-Chloro-4-fluorophenyl)-5-(3-fluorophenyl)-2-methyl-1,2,6-thiadiazinane-3-carboxamide 1,1-dioxide], for which the EC50 is less than 1000 nM. The figure for `CN1[C@H](C(=O)Nc2ccc(F)c(Cl)c2)C[C@H](c2ccc(Cc3ccccc3)s2)NS1(=O)=O` [HBV-CSU-117-ISO-I, Cis-(5-benzylthiophen-2-yl)-N-(3-chloro-4-fluorophenyl)-2-methyl-1,2,6-thiadiazinane-3-carboxamide 1,1-dioxide] is less than 1000 nM; for `CN1C(C(=O)Nc2ccc(F)c(Cl)c2)CC(c2cc(-c3cnn(CCO)c3)cs2)NS1(=O)=O` (racemic) [HBV-CSU-296, Cis-N-(3-chloro-4-fluorophenyl)-5-(4-(1-(2-hydroxyethyl)-1H-pyrazol-4-yl)thiophen-2-yl)-2-methyl-1,2,6-thiadiazinane-3-carboxamide 1,1-dioxide] it is 1000 to 5000 nM. The result for `CN1C(C(=O)Nc2ccc(F)c(Cl)c2)CC(c2ccc(Cl)cc2)NS1(=O)=O` (stereo not drawn) [HBV-CSU-265, Cis-N-(3-Chloro-4-fluorophenyl)-5-(4-chlorophenyl)-2-methyl-1,2,6-thiadiazinane-3-carboxamide 1,1-dioxide] reads less than 1000 nM.

For `CN1[C@@H](C(=O)Nc2ccc(F)c(Cl)c2)C[C@@H](c2ccc(Cl)cc2)NS1(=O)=O` [HBV-CSU-265-ISO-II], the EC50 was more than 5000 nM.

For orientation: EC50 means the midpoint of the concentration-response curve.
